Test results: BindingDB's records for patent US11352356 (Takeda Pharmaceutical Company Limited, 2022)

Target: Plasma kallikrein (Human, UniProt P03952)
Experiment: Inhibitory Activity Assay
Protocol: Example compounds were evaluated for inhibition of the human activated kallikrein enzyme in two formats of an assay employing a fluorogenic peptide substrate. In one assay format, the concentrations of reagents were as follows: 20 mM Tris pH 7.5, 1 mM EDTA, 150 mM sodium chloride, 0.1% PEG-400, 0.1% Triton X-100, 500 pM activated kallikrein enzyme, 300 uM Pro-Phe-Arg-7-amido-4-methylcoumarin substrate. Prior to reaction initiation with substrate, enzyme and inhibitors were preincubated for 30 min at RT. After initiation with substrate, reactions were incubated for 10 min at RT and fluorescence emission at 460 nm from 380 nm excitation measured with a microplate reader. In another assay format, the concentrations of reagents were as follows: 20 mM Tris pH 7.5, 1 mM EDTA, 150 mM sodium chloride, 0.1% PEG-400, 0.1% Triton X-100, 5 pM activated kallikrein enzyme, 300 uM Pro-Phe-Arg-7-amido-4-methylcoumarin substrate. Prior to reaction initiation with substrate, enzyme and inhibitors were preincubated for 30 min at RT. After initiation with substrate, reactions were incubated for 18 h at RT and fluorescence emission at 460 nm from 380 nm excitation measured with a microplate reader.

Chain of Plasma kallikrein (P03952 20-390 S143N limits assumed): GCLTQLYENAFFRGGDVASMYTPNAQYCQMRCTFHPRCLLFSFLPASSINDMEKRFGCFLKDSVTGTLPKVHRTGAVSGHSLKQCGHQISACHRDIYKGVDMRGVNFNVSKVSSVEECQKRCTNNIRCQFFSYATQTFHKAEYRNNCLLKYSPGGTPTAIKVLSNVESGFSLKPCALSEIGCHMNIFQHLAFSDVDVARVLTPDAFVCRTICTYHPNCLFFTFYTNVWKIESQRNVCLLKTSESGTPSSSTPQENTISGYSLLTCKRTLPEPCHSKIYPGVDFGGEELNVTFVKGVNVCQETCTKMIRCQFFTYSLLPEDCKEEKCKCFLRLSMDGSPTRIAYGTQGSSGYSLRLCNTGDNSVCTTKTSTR
Chain of Plasma kallikrein (P03952 391-638 limits assumed): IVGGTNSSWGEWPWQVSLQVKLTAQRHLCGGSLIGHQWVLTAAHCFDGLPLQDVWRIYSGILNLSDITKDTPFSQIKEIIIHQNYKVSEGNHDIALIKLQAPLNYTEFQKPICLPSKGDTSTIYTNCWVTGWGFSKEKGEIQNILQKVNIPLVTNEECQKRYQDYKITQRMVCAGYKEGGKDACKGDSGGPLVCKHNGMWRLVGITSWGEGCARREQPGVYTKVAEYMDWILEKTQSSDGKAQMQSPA

O=C(NCc1ncn2ccc(Cl)cc12)c1cnn(Cc2cn3ccc(C4CC4)c(F)c3n2)c1 [US11352356, Compound I-144]
EC50: < 1 nM

O=C(NCc1ncn2ccc(Cl)c(F)c12)c1cn(Cc2cn3ccc(C4CC4)cc3n2)nn1 [US11352356, Compound I-148]
EC50: < 1 nM

CC(C)(C)OC(=O)C(C)(C)Oc1cc(C2CC2)cn2cc(Cn3cc(C(=O)NCc4ncn5ccc(Cl)c(F)c45)nn3)nc12 [US11352356, Compound I-212]
EC50: < 1 nM

COC(=O)c1cnn(-c2cc(C3CC3)cn3cc(Cn4cc(C(=O)NCc5ncn6ccc(Cl)c(F)c56)nn4)nc23)c1 [US11352356, Compound I-230]
EC50: < 1 nM

CCOC(COCc1cc(C2CC2)cn2cc(Cn3cc(C(=O)NCc4ncn5ccc(Cl)c(F)c45)nn3)nc12)OCC [US11352356, Compound I-301]
EC50: < 1 nM

CC(C)(C)[S+]([O-])NCCOCc1cc(C2CC2)cn2cc(Cn3cc(C(=O)NCc4ncn5ccc(Cl)c(F)c45)nn3)nc12 (stereo unspecified) [US11352356, Compound I-302]
EC50: < 1 nM
